According to PMC9150124, “Design of a Potent, Selective, and Brain-Penetrant Inhibitor of Wnt-Deactivating Enzyme Notum by Optimization of a Crystallographic Fragment Hit” (Journal of Medicinal Chemistry, 2022):

Assays:
Assay in all cases: SelectScreen kinase profiling, SSBK LanthaScreen Binding SP Technology
[1] = target: kinase named in conditions (Homo sapiens, UniProt P22607, G697C); details: FGFR3 G697C, 10 μM
Method: (§1) Kinase selectivity screening was performed by Thermo Fisher Scientific (Paisley, U.K.) in their SelectScreen Biochemical Kinase Profiling Service. Assay information and data are presented in the Supporting Information.
(§2) Kinase selectivity screening was performed by ThermoFisher Scientific (Paisley, U.K.) in their SelectScreenTM
(§3) Biochemical Kinase Profiling service .
(§4) Illustration reproduced courtesy of Cell Signaling technology, Inc.
(§5) (B) Illustration of phylogenetic tree of kinases screened.

[2] = target: kinase named in conditions (Homo sapiens, UniProt O94921); details: CDK14 (PFTK1)/cyclin Y, 10 μM
Method: as §1, §2, §3, §4, §5

[3] = target: kinase named in conditions (Homo sapiens, UniProt Q13873); details: BMPR2, 10 μM
Method: as §1, §2, §3, §4, §5

[4] = target: kinase named in conditions (Homo sapiens, UniProt P45983); details: MAPK8 (JNK1), 10 μM
Method: as §1, §2, §3, §4, §5

[5] = target: kinase named in conditions (Homo sapiens, UniProt Q9BWU1); details: 10 μM
Method: as §1, §2, §3, §4, §5

[6] = target: kinase named in conditions (Homo sapiens, UniProt Q9UKE5); details: TNIK, 10 μM
Method: as §1, §2, §3, §4, §5

[7] = target: kinase named in conditions (Homo sapiens, UniProt Q7L7X3); details: TAOK1, 10 μM
Method: as §1, §2, §3, §4, §5

[8] = target: kinase named in conditions (Homo sapiens, UniProt P00519, H396P); details: ABL1 H396P, 10 μM
Method: as §1, §2, §3, §4, §5

[9] = target: kinase named in conditions (Homo sapiens, UniProt Q02750); details: MAP2K1 (MEK1), 10 μM
Method: as §1, §2, §3, §4, §5

[10] = target: kinase named in conditions (Homo sapiens, UniProt Q07912); details: TNK2 (ACK), 10 μM
Method: as §1, §2, §3, §4, §5

[11] = target: kinase named in conditions (Homo sapiens, UniProt O14976); details: GAK, 10 μM
Method: as §1, §2, §3, §4, §5

[12] = target: kinase named in conditions (Homo sapiens, UniProt Q8IWQ3); details: BRSK2, 10 μM
Method: as §1, §2, §3, §4, §5

[13] = target: kinase named in conditions (Homo sapiens, UniProt Q15569); details: TESK1, 10 μM
Method: as §1, §2, §3, §4, §5

[14] = target: kinase named in conditions (Homo sapiens, UniProt Q76MJ5); details: ERN2, 10 μM
Method: as §1, §2, §3, §4, §5

[15] = target: kinase named in conditions (Homo sapiens, UniProt Q09013); details: DMPK, 10 μM
Method: as §1, §2, §3, §4, §5

[16] = target: kinase named in conditions (Homo sapiens, UniProt O00311); details: CDC7/DBF4, 10 μM
Method: as §1, §2, §3, §4, §5

[17] = target: kinase named in conditions (Homo sapiens, UniProt P10721, Y823D); details: KIT Y823D, 10 μM
Method: as §1, §2, §3, §4, §5

[18] = target: kinase named in conditions (Homo sapiens, UniProt P33981); details: TTK, 10 μM
Method: as §1, §2, §3, §4, §5

[19] = target: kinase named in conditions (Homo sapiens, UniProt Q8NFD2); details: ANKK1, 10 μM
Method: as §1, §2, §3, §4, §5

[20] = target: kinase named in conditions (Homo sapiens, UniProt P10721, T670E); details: KIT T670E, 10 μM
Method: as §1, §2, §3, §4, §5

[21] = target: kinase named in conditions (Homo sapiens, UniProt Q15835); details: GRK1, 10 μM
Method: as §1, §2, §3, §4, §5

[22] = target: kinase named in conditions (Homo sapiens, UniProt P24941)
Method: as §1, §2, §3, §4, §5

[23] = target: kinase named in conditions (Homo sapiens, UniProt Q00535); details: CDK5 (Inactive), 10 μM
Method: as §1, §2, §3, §4, §5

[24] = target: kinase named in conditions (Homo sapiens, UniProt Q9UM73, F1174L); details: ALK F1174L, 10 μM
Method: as §1, §2, §3, §4, §5

[25] = target: kinase named in conditions (Homo sapiens, UniProt Q9UBE8); details: NLK, 10 μM
Method: as §1, §2, §3, §4, §5

[26] = target: kinase named in conditions (Homo sapiens, UniProt Q02763, Y1108F); details: TEK (TIE2) Y1108F, 10 μM
Method: as §1, §2, §3, §4, §5

[27] = target: kinase named in conditions (Homo sapiens, UniProt P00519, M351T); details: ABL1 M351T, 10 μM
Method: as §1, §2, §3, §4, §5

[28] = target: kinase named in conditions (Homo sapiens, UniProt P22694); details: PRKACB (PRKAC beta), 10 μM
Method: as §1, §2, §3, §4, §5

[29] = target: kinase named in conditions (Homo sapiens, UniProt Q04771, R206H); details: ACVR1 (ALK2) R206H, 10 μM
Method: as §1, §2, §3, §4, §5

[30] = target: kinase named in conditions (Homo sapiens, UniProt P10721, D816H); details: KIT D816H, 10 μM
Method: as §1, §2, §3, §4, §5

[31] = target: kinase named in conditions (Homo sapiens, UniProt P57058); details: HUNK, 10 μM
Method: as §1, §2, §3, §4, §5

[32] = target: kinase named in conditions (Homo sapiens, UniProt P45984); details: MAPK9 (JNK2), 10 μM
Method: as §1, §2, §3, §4, §5

[33] = target: kinase named in conditions (Homo sapiens, UniProt O00238); details: BMPR1B (ALK6), 10 μM
Method: as §1, §2, §3, §4, §5

[34] = target: kinase named in conditions (Homo sapiens, UniProt Q14004); details: read-out: % Inhibition mean
Method: as §1, §2, §3, §4, §5

Q: How did the inhibition at 10 µM [1] turn out when `FC(F)(F)c1c(Cl)ccc(-n2ccnn2)c1Cl` [8l, 1-(2,4-Dichloro-3-(trifluoromethyl)phenyl)-1H-1,2,3-triazole] was run?
A: -1%

Q: What about the inhibition at 10 µM [2] of the same compound?
A: 43%

Q: And the inhibition at 10 µM [3]?
A: 13%

Q: What about the inhibition at 10 µM [4] of the same compound?
A: -9%

Q: And the inhibition at 10 µM ([5]; CDK11 (Inactive))?
A: 12%

Q: What about the inhibition at 10 µM ([5]; CDK11/cyclin C) of the same compound?
A: 23%

Q: And the inhibition at 10 µM [6]?
A: 0%

Q: What about the inhibition at 10 µM [7] of the same compound?
A: 0%

Q: What about the inhibition at 10 µM [8] of the same compound?
A: 7%

Q: And the inhibition at 10 µM [9]?
A: 26%

Q: And the inhibition at 10 µM [10]?
A: 3%

Q: What about the inhibition at 10 µM [11] of the same compound?
A: 17%

Q: What about the inhibition at 10 µM [12] of the same compound?
A: 4%

Q: What about the inhibition at 10 µM [13] of the same compound?
A: 7%

Q: And the inhibition at 10 µM [14]?
A: 9%

Q: What about the inhibition at 10 µM [15] of the same compound?
A: 2%

Q: And the inhibition at 10 µM [16]?
A: -15%

Q: And the inhibition at 10 µM [17]?
A: 6%

Q: What about the inhibition at 10 µM [18] of the same compound?
A: 5%

Q: And the inhibition at 10 µM [19]?
A: -4%

Q: And the inhibition at 10 µM [20]?
A: 1%

Q: What about the inhibition at 10 µM [21] of the same compound?
A: 3%

Q: What about the inhibition at 10 µM ([22]; CDK2/cyclin A1, 10 μM) of the same compound?
A: 3%

Q: And the inhibition at 10 µM ([22]; CDK2/cyclin E1, 10 μM)?
A: -4%

Q: What about the inhibition at 10 µM ([22]; CDK2/cyclin O, 10 μM) of the same compound?
A: 7%

Q: And the inhibition at 10 µM [23]?
A: 1%

Q: And the inhibition at 10 µM [24]?
A: 1%

Q: What about the inhibition at 10 µM [25] of the same compound?
A: 5%

Q: What about the inhibition at 10 µM [26] of the same compound?
A: -9%

Q: And the inhibition at 10 µM [27]?
A: 24%

Q: And the inhibition at 10 µM [28]?
A: 1%

Q: And the inhibition at 10 µM [29]?
A: 0%

Q: And the inhibition at 10 µM [30]?
A: -2%

Q: What about the inhibition at 10 µM [31] of the same compound?
A: 1%

Q: And the inhibition at 10 µM [32]?
A: -5%

Q: What about the inhibition at 10 µM [33] of the same compound?
A: 0%

Q: And the inhibition at 10 µM [34]?
A: 38%
